Targets include Carbonic anhydrase 9 (Homo sapiens, UniProt Q16790); Carbonic anhydrase 1 (Homo sapiens, UniProt P00915); Carbonic anhydrase 4 (Homo sapiens, UniProt P22748); Carbonic anhydrase 2 (Homo sapiens, UniProt P00918).
Assay [1] concerns the target Carbonic anhydrase 5A, mitochondrial (Homo sapiens, UniProt P35218).

Chain of Carbonic anhydrase 1 (P00915 whole entry): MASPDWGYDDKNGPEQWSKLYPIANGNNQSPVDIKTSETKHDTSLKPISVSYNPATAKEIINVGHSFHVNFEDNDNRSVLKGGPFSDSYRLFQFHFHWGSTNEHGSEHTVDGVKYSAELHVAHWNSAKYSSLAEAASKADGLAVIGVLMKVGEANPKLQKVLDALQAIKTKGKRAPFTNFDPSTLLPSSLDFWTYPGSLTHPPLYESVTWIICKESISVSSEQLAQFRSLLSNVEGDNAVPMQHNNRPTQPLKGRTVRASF
Chain of Carbonic anhydrase 4 (P22748 whole entry): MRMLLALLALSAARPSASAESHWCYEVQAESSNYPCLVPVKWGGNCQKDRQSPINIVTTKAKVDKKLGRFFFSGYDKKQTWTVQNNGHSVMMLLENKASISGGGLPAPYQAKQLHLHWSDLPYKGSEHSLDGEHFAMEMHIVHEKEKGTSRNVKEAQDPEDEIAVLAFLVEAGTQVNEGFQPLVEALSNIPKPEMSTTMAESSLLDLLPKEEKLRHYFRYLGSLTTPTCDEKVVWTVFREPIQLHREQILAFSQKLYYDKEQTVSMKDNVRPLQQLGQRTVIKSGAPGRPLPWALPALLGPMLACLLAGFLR
Chain of Carbonic anhydrase 5A, mitochondrial (P35218 whole entry): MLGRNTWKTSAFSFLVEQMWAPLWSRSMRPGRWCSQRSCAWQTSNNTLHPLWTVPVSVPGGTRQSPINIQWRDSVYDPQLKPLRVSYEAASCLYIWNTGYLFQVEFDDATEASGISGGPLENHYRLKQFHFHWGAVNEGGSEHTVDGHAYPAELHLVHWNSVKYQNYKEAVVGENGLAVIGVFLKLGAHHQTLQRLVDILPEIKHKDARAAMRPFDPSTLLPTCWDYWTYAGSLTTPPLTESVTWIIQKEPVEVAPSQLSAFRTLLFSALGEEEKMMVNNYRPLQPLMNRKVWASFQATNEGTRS

Turning to `F[P-](F)(F)(F)(F)F.[Na+]`, the Ki on Carbonic anhydrase 9 was 8.1 mM; at Carbonic anhydrase 1 it was 11 mM; on Carbonic anhydrase 4, 19.1 mM; in assay [1], over 300 mM; on Carbonic anhydrase 2 it was 17.5 mM.

For orientation: Ki means the dissociation constant of the complex between target and ligand, obtained from inhibition or displacement.

(Values after ChEMBL document CHEMBL1141918 (Bioorg Med Chem Lett, 2005).)
